Measurements: US7482032B2, “Carotenoid preparation” (I.B.R. Israeli Biotechnology Research, Ltd., priority 1998, dated 2009)

Experiments:
[1] = UV absorbance spectra (spectrophotometric analysis); assay type: physicochemical; settings: extract from Dunaliella sp.
Method: Absorption spectra of the phytoene and phytofluene extract was determined using Hewlett Packard 8452A Diode Array Spectrophotometer.
As expected, the main absorbance peak for β-carotene was at 450 nm. β-Carotene was reduced due to the synthesis inhibition while phytoene and phytofluene increased.

[2] = Stability under visible light (filtered sunlight, aerobic); assay type: physicochemical
Method: Stability of phytoene and phytofluene under visible light was measured under sunlight (full sun summer day in Rehovot, Israel, at noon) filtered through “hot mirror” (Andover Corporation, Salem, N.H., transmittance 400-650 nm) filter. Samples were dissolved in ethanol, exposed to light for 30-150 min and then extracted in hexane after basic hydrolysis (as in extraction method above). Phytoene, phytofluene and beta-carotene amounts were measured spectrophotometrically, and percentage lefts were calculated as in section 5 above.
Stability of phytoene and phytofluene was compared to that of beta-carotene stability (as explained in materials and methods) under visible light. The absorbance of the preparation is determined in 220-600 nm wavelength and the amount of each of the above carotenoids in each sample is calculated to determine the percent of the carotenoids measured after irradation of the extract compared to measurements prior to irradiant (see example 2 above).

[3] = Stability of phytoene and phytofluene under UV irradiation (aerobic); assay type: physicochemical
Method: 6. Stability of Phytoene and Phytofluene Under Aerobic Conditions in UV Lights and Various Incubation Temperatures
(§1) Stability of the carotenoids in the various temperatures was determined by long-term incubation of phytoene and phytofluene in several types of oils and solvents at 4° C., 23° C., 30° C. and 60° C. The amount of phytoene and phytofluene left was determined spectrophotometrically. The percent of phytoene and phytofluene left was calculated as follows:
[formula] Stability under UV lights (254 nm, 365 nm, 254+365 nm), for 30 mins. at 300/310 μw/cm^2 was determined. 7. Stability of Phytoene and Phytofluene Under Aerobic Conditions in Visible Light
The stability of the phytoene and phytofluene extracts obtained as explained in Example 1 above was determined by spectrophotometric analysis. Phytoene and phytofluene were dissolved in hexane or oil. The absorbance of the preparation is determined in 220-600 nm and the amount of each of the above carotenoids in each sample is calculated to determine the percent of the carotenoids measured after irradiation of the extract divided by the amount of the same carotenoid which was measured in the extract before exposing it to irradiation (see Materials and Methods 5 above). The stability of the phytoene and phytofluene was measured by the exposure of the extract both to UVA light (365 nm) and UVB light (254 nm) irradiation as well as to a combination of UVA and UVB irradiation.

[4] = Stability of phytoene and phytofluene at various incubation temperatures in oils and solvents; assay type: physicochemical; settings: 4° C., 23° C., 30° C. and 60° C., hexane or oils, four months
Method: as §1, with “follows: […]” for “follows:”
The stability of phytoene and phytofluene under different temperature conditions (4° C., 23° C., 30° C. and 60° C.) in hexane or in other various commercially used oils was also measured.
The measurements were carried out over a period of four months.

[5] = system: DNA repair synthesis activity; assay: Genotoxic effect: induction of DNA repair synthesis activity (ratio R); assay type: biochemical; settings: R≦2 no toxic effect
Method: The genotoxicity is measured as the induction of DNA repair synthesis activity and is expressed by the ratio (R): while R≦2 indicate no toxic effect

[6] = 254 nm + 365 nm, 30 minutes exposure, in hexane
[7] = 254 nm + 365 nm, 30 minutes exposure, in oil
[8] = 254 nm, 30 minutes exposure, in hexane
[9] = 254 nm, 30 minutes exposure, in oil
[10] = 365 nm, 30 minutes exposure, in hexane
[11] = 365 nm, 30 minutes exposure, in oil
[12] = Darkness, 30 minutes, in hexane

Compound | main absorbance peak [1] | % left ([2]; time of exposure 0 min) | % left ([2]; time of exposure 30 min) | % left ([2]; time of exposure 90 min) | % left ([2]; time of exposure 120 min) | % left ([2]; time of exposure 150 min) | PH and PF (% left) [3, 6] | PH and PF (% left) [3, 7] | PH and PF (% left) [3, 8] | PH and PF (% left) [3, 9] | PH and PF (% left) [3, 10] | PH and PF (% left) [3, 11] | PH and PF (% left) [3, 12] | PH and PF (% left) ([3]; Darkness, 30 minutes, in oil) | Stability under different temperature conditions [4] | Genotoxicity (Ratio) ([5]; concentration 2 mM) | Genotoxicity (Ratio) ([5]; concentration 10 mM)
CC(C)=CCC/C(C)=C/CC/C(C)=C/CC/C(C)=C/C=C/C=C(\C)CC/C=C(\C)CC/C=C(\C)CCC=C(C)C [Phytoene, 7,8, 11, 12, 7′, 8′, 11′, 12′-octahydro-γ,γ-carotene] | 286 nm | 100% | 54.46% | 20.33% | 15.70% | 13.64% | 92.4% | 101% | 92.2% | 100% | 98.7% | 100% | 100% | 100% | stable in the entire measured temperature range | – | –
COS(C)(=O)=O [MMS] | – | – | – | – | – | – | – | – | – | – | – | – | – | – | – | 2.44 | 6.26
CC(C)=CCC/C(C)=C/CC/C(C)=C/C=C/C(C)=C/C=C/C=C(\C)CC/C=C(\C)CC/C=C(\C)CCC=C(C)C [Phytofluene, 15Z, 7,8, 11, 12, 7′, 8′-hexahydro-γ,γ-carotene] | 348 nm | 100% | 66.13% | 50.42% | 41.33% | 33.06% | 99.0% | 98% | 92.6% | 90% | 101.5% | 88% | 100% | 100% | stable in the entire measured temperature range | – | –
CC1=C(/C=C/C(C)=C/C=C/C(C)=C/C=C/C=C(C)/C=C/C=C(C)/C=C/C2=C(C)CCCC2(C)C)C(C)(C)CCC1 [Beta-carotene, reference compound] | 450 nm | 100% | 25.00% | 11.36% | 9.47% | 5.68% | – | – | – | – | – | – | – | – | – | – | –
